Values after ≈ are worked out from the molar mass of the structure shown. Read-outs that look alike come from different tables or passages of the source.
Assays:
[1] = test system: Bladder carcinoma cells EJ; assay: in vitro cytotoxicity assay, crystal violet, 72 h (Example 1); type: cell-based, human; conditions: for IC50: Homo sapiens
Method: (§1) Examinations for the in vitro cytoxicity of 2-methylthiazolidine-2,4-dicarboxylic acid and N-acetylcysteine in human tumor cell lines were carried out.
(§2) The cells were kept in culturing medium RPMI 1640 (Sigma, Munich) and in addition 10% FCS (Sigma, Munich) in 50 ml cell culture vials (Greiner) at 37° C. as well as under a 5% of CO2 atmosphere.
(§3) Monolayers of the tumor cells were prepared by dispersion of 2×10^6 tumor cells in 96-hole-plates (Greiner). After an incubation time of 24 hours the medium was replaced by a medium containing the test compounds. All assays were carried out four times.
(§4) After 72 h the quantity of living cells was determined by means of coloring with crystal violet.
(§5) For that purpose, the medium was removed from each hole in the plate, the plates were washed twice with PBS, the cells were fixed by means of PBS, containing 1% of paraformaldehyde and dried for 15 minutes at room temperature. Subsequently, the cells were rinsed with PBS and dried at room temperature.
(§6) Thereafter, the cells were colored with 1% crystal violet solution in water for two minutes, and after washing with water the optical density was determined by means of an ELISA spectrometer at 595 nm. The average values and standard deviations for the average values were determined for all four parallel tests.

Neuroglioma cells H4 = assay: as above; type: cell-based; conditions: human gliomas cells H4, 72 h; for cytotoxic effect: N-acetylcysteine up to comparatively high concentrations
Method: as §1, §2, §3, §4, §5, §6

Cn1nnc2c(C(N)=O)ncn2c1=O [temozolomide, Temozolomide]
IC50 ([1]; alone, read-out: IC50 value for temozolomide alone): 1050 µg/mL (≈ 5430 µM) | IC50 ([1]; in the presence of 200 μg/ml 2-methylthiazolidine-2,4-dicarboxylic acid, read-out: IC50 value of temozolomide in the presence of 2-methylthiazolidine-2,4-dicarboxylic acid): 96.6 µg/mL | IC50 ([1]; in the presence of 1000 μg/ml N-acetylcysteine, read-out: IC50 value of temozolomide in the presence of N-acetylcysteine): 903 µg/mL

CC(=O)N[C@@H](CS)C(=O)O [N-acetylcysteine]
cytotoxic effect (Neuroglioma cells H4): no effect

CC1(C(=O)O)NC(C(=O)O)CS1 (stereo not shown) [2-methylthiazolidine-2,4-dicarboxylic acid]
growth of the bladder carcinoma cell line EJ ([1]; substance alone): not influenced | IC50 (Neuroglioma cells H4): 9.66 µg/mL (≈ 50.5 µM) | cytotoxic effect (Neuroglioma cells H4): significant cytotoxic effect

From patent US20070213382A1, “2-METHYLTHIAZOLIDINE-2, 4-DICARBOXYLIC ACID-CONTAINING COMBINATION PREPARATIONS” (priority 2004, published 2007)
